Results taken from patent publication US20230165836A1, “ALPHA-2 ADRENERGIC RECEPTOR AGONISTS FOR THE TREATMENT OF CANCER” (UNIVERSITÉ CATHOLIQUE DE LOUVAIN, priority 2020, published 2023).
Entries after “also recorded” stand apart in the source; their conditions may differ. Read-outs that look alike come from different tables or passages of the source.

Experiments:
[1] = test system: immune-resistant autochthonous melanoma tumors (TiRP); experiment: TiRP melanoma with adoptive cell transfer (ACT) of P1A-specific CD8+T cells; type: in vivo, TiRP mice; conditions: 5 mg/kg
Excerpt: TiRP mice have been created by crossing Ink4a/Are^flox/flox mice with mice carrying a transgenic construct controlled by the tyrosinase promoter and driving the expression of H-Ras ^12V and Trapl a which encodes a MAGE-type tumor antigen P1A; the promoter is separated from the coding region by a stop cassette made of a floxed self-deleting CreER (Huijbers et al., 2006, Cancer Res 66, 3278-3286). Those mice were backcrossed to a B10.D2 background and bred to homozygosity. TCRP1A mice heterozygous for the H-2Ld/P1A35-43-specific TCR transgene were kept on the B10.D2;Rag1^−/− background (Shanker et al., 2004, J Immunol 172, 5069-5077). BALB/c mice were used in tumor transplantation experiments. TiRP-derived T429.11 transplanted melanoma model: T429.11 clone was derived from an induced Amela TiRP tumor referred to as T429. It was cloned from the T429 induced melanoma primary tumor line. Two million of T429.11 tumor cells were injected subcutaneously into recipient mice for tumor establishment (Zhu et al., 2017, Nat Commun. 10; 8(1):1404). Adra2a tm1Bkk mice (Strain Name: B6.129-Adra2a tm1Bkk /J, # 004367) were obtained from Jackson Laboratory (Bar Harbor, Me., USA).
A fresh solution of 40H-Tamoxifen was prepared by dissolving 40H-Tamoxifen (Imaginechem®) in 100% ethanol and mineral oil (ratio 1:9) followed by 30 min sonication, and injected subcutaneously (2 mg/200 uL per mouse) in the neck area of gender-matched 7 weeks old TiRP mice. Tumor appearance was monitored daily and tumors were measured three times/week. Tumor volume (in mm^3) was calculated by the following formula: Volume=width^2×length/2.
For the adoptive cell transfer (ACT), P1A-specific (TCRP1A) CD8+T cells were isolated from spleens and lymph nodes of TCRP1A mice as described hereinabove, and stimulated in vitro by co-culture with irradiated (10,000 rads) L1210.P1A.B7-1 cells (Gajewski et al., 1995, J Immunol 154, 5637-5648) at 1:2 ratio (0.5×10^5 CD8+T cells and 10^5 L1210.P1A.B7-1 cells per well in 48-well plates) in IMDM (GIBCO®) containing 10% fetal bovine serum supplemented with L-arginine (0.55 mM, Merck®), L-asparagine (0.24 mM, Merck®), glutamine (1.5 mM, Merck®), beta-mercaptoethanol (50 μM, Sigma Aldrich®), 50 U mL^−1 penicillin and […] mL^−1 streptomycin (Life Technologies®). Four days later, TCRP1A CD8+T cells were purified on a Lymphoprep gradient (StemCell®) and 10^7 living cells were injected intravenously in 200 μL PBS in TiRP-tumor bearing mice on the day of randomization.
TiRP-tumor bearing mice received adoptive cell transfer (ACT) of 10^7 P1A-specific activated CD8+T cells and daily injections of vehicle control, clonidine (5 mg/kg, i.p.), or clonidine (5 mg/kg, i.p.) combined with phentolamine (5 mg/kg, i.p.), when the tumor size was around 500 mm^3, until the day of sacrifice. Tumor size was monitored every 2 days. Mice were sacrificed when the tumor in control group reached around 2,000 mm^3.
TiRP-tumor bearing mice received adoptive cell transfer (ACT) of 10^7 of P1A-specific activated CD8+T cells. Daily injections of 5 mg/kg i.p. of romifidine or clonidine were thus administered from the day of the ACT, when the tumor size was around 500 mm^3, until the day of sacrifice. As shown on FIGS. 5A-B, following romifidine or clonidine administration, tumor infiltration of CD8+T cells was increased. […]

[2] = test system: SKOV3 human ovarian tumor cells; conditions: SKOV3 in NSG mice
Method: SKOV3 human ovarian tumor cells were injected subcutaneously in immune deficient NSG mice. When tumors were palpable, tumor-bearing mice received adoptive cell transfer of 3×10^6 of allogeneic human PBMC (i.v.) and were injected daily with clonidine (5 mg/kg, i.p.) or vehicle (PBS, i.p.) until sacrifice.

B16F1 melanoma = B16F1 melanoma in immune competent mice; type: in vivo; conditions: B16F1 in immune competent C57BL/6 mice; 5 mg/kg, i.p.; monotherapy
Method: FIGS. 10A-B is a set of curves showing the tumor growth of B16F1 melanoma in C57BL/6J (FIG. 10A) or immunodeficient NSG mice (FIG. 10B) treated with PBS (Control, curve 1) or clonidine (5 mg/kg, i.p., curve 2).
FIGS. 11A-B is a set of curves showing the tumor growth of B16F1 melanoma in C57BL/6J (FIG. 11A) or NSG mice (FIG. 11B) treated with PBS (Control, curve 1) or guanfacine (5 mg/kg, i.p., curve 2).

[3] = test system: myelofibrosis induced by romiplostim; conditions: romiplostim 1 mg/kg s.c. days 1, 8, 15, 5 mg/kg i.p. daily for two weeks from day 8, wildtype mice
Method: 8-week female C57BL/6 J wild-type and Adra2a KO mice were administered saline or 1 mg/kg of romiplostim by a subcutaneous injection into the neck skin on days 1, 8 and 15. Clonidine or guanabenz were administrated i.p. at a dose of 5 mg/kg daily for two weeks starting from day 8. Mice were dissected on day 22 and peripheral blood was drawn by cardiac puncture, the platelet concentration was measured by Cell Counter Analyzer MS9-5V.

[4] = test system: human LS411N ovarian cancer; experiment: LS411N xenograft with adoptive transfer of allogeneic human PBMC; type: in vivo; conditions: human allogenic PBMC transferred at tumor size 100 mm^3
Method: Adoptive transfer of human PBMC was performed when tumor size reaches 100 mm^3.

renal cancer = experiment: Tumor model: renal cancer; type: in vivo, mice; conditions: renal cancer (FIG. 22G, 23G)
Excerpt: FIGS. 23A-H is a set of curves showing the tumor growth of mice treated with PBS (Control, circles) or guanabenz (GBZ, triangles) in different tumor models: such as mammary gland tumor (FIG. 23A), hepatocellular carcinoma (FIG. 23B), T cell lymphoma (FIG. 23C), lung cancer (FIG. 23D), myeloma (FIG. 23E), mammary adenocarcinoma (FIG. 23F), renal cancer (FIG. 23G) and fibrosarcoma (FIG. 23H).

Compound: Clc1cccc(Cl)c1N=C1NCCN1 [clonidine]
- tumor infiltration of CD8+T cells (%CD8+T cells among total CD45+T cells) ([1]; TiRP mice with ACT, 5 mg/kg i.p. daily from day of ACT, tumor size around 500 mm^3): increase of tumor infiltration of CD8+T cells; also recorded: increased
- tumor growth, combined with ACT ([1]; TiRP mice, ACT of 10^7 P1A-specific CD8+T cells, 5 mg/kg i.p. daily): strongly sensitized immune-resistant autochthonous melanoma tumors (TiRP) to adoptive cell transfer (ACT); also recorded: efficiently control the growth; also recorded: inhibited the tumor growth
- anti-tumor efficacy of human PBMC ([2]; 3×10^6 PBMC i.v., 5 mg/kg i.p. daily): strongly increased the anti-tumor efficacy of human PBMC
- expression of CD44 on tumor-infiltrated CD8+T cells ([2]; PBMC, 5 mg/kg i.p.): increased expression of CD44
- infiltration of CD4+ human T cells into tumors ([2]; PBMC, 5 mg/kg i.p.): increased
- infiltration of CD8+ human T cells into tumors ([2]; PBMC, 5 mg/kg i.p.): increased
- tumor growth, compared to ACT alone ([2]; with ACT, 5 mg/kg i.p. daily): significantly decreased
- tumor weight on the day of sacrifice, compared to ACT alone ([2]; with ACT, 5 mg/kg i.p. daily): significantly decreased
- tumor growth (B16F1 melanoma): inhibited tumor growth
- platelet (PLT) counts [3]: significantly reduces the platelet (PLT) counts
- platelet (PLT) counts ([3]; listed as Clonidine): reduces the platelet count
- tumor growth [4]: significant tumor inhibition
- tumor growth (renal cancer): strong tumor inhibition
